The values that follow come from ChEMBL document CHEMBL1128636, “()-1-Azabicyclo[2.2.1]heptan-3-one, O-(3-methyl-5-aryl-2-penten-4-ynyl) oximes: Potent muscarinic agonists” (Bioorg Med Chem Lett, 1995).

In assay [1] the target is Muscarinic acetylcholine receptor.
Description: Binding affinity against muscarinic receptor using radioligand [3H]quinuclidinyl benzilate (QNB) binding assay in membrane preparations of rat neocortex.
The target is the same in assay [2]. The source holds these as a separate data set.
Description: Binding affinity against muscarinic receptor using radioligand [3H]cis-methyldioxolane (CMD) binding assay in membrane preparations of rat neocortex.
Assay [3] concerns the target T1, Muscarinic acetylcholine receptor M1 (Homo sapiens) (UniProt P11229).
T1 sequence (whole entry): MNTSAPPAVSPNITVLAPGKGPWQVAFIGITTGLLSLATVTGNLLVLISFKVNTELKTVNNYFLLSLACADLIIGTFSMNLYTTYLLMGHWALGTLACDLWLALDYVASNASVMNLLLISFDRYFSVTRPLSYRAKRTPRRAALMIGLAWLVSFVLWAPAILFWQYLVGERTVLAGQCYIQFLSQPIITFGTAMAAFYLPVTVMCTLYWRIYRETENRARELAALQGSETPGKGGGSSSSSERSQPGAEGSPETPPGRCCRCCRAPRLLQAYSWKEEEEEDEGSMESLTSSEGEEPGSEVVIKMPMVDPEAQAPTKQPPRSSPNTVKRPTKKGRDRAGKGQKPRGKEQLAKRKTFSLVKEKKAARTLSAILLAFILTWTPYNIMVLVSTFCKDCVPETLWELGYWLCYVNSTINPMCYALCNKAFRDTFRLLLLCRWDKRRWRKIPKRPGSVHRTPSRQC
Particulars: NIH3T3.
Description: Agonistic efficacy in human m1 muscarinic receptor expressed with the marker gene beta-galactosidase in NIH 3T3 cells.

Assay [4] has as its target T2, Muscarinic acetylcholine receptor M2 (Homo sapiens) (UniProt P08172).
T2 sequence (whole entry): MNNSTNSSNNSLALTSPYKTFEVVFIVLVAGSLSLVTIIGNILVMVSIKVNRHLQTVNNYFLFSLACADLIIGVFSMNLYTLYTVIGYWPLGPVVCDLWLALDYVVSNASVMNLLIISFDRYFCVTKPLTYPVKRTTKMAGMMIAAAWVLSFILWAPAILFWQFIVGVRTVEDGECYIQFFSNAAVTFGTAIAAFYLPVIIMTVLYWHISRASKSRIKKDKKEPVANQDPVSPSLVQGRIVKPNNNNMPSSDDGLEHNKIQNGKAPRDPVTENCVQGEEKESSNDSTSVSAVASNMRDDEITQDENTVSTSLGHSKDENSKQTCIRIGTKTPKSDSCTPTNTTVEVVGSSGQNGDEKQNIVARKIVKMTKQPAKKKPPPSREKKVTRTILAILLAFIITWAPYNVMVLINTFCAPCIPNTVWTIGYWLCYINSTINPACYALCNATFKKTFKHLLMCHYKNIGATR
Particulars: NIH3T3.
Description: Agonistic efficacy in human m2 muscarinic receptor expressed with the marker gene beta-galactosidase in NIH 3T3 cells.

The target of assay [5] is T3, Muscarinic acetylcholine receptor (Rattus norvegicus) (UniProt P08482+P08483+P08485+P08911+P10980). It is filed as tissue-based. Particulars: Neocortex; 1 uM.
The target of assay [6] is T3, Muscarinic acetylcholine receptor (Rattus norvegicus). It is filed as tissue-based. Particulars: Neocortex; 100 nM.
In assay [7] the target is T1, Muscarinic acetylcholine receptor M1 (Homo sapiens). In words: Agonistic efficacy in human m1 muscarinic receptor which was expressed with the marker gene beta-galactosidase in NIH 3T3 cells; No data. It is filed as functional, cell-based. Particulars: NIH3T3.
The target of assay [8] is Muscarinic acetylcholine receptor. It is filed as tissue-based, Neocortex.

The source made the active and inactive calls. No cut-off for these calls is given here.

For orientation: IC50 means the concentration that inhibits the measured activity by half. Higher therefore signals weaker potency. In general, inhibition refers to the relative decrease from the control value, in per cent. The low end stands for a response near the control, the high end for a response far below the control.

For `COc1ccc(C#C/C(C)=C\CO/N=C2/CN3CCC2C3)cc1OC` (configuration not stated), the figures for the IC50 in assay [1] and in assay [2] were 8547 nM and 4.6 nM, respectively. For the same molecule, the ED50 in assay [3] worked out at 162 nM; in assay [4], 0.9 nM.

In turn, `C#C/C(C)=C/CO/N=C1\CN2CCC1C2` (configuration not stated) returned an IC50 in assay [2] of 4 nM. The ED50 is 85 nM in assay [3] and 11 nM in assay [4].

Take `C#C/C(C)=C/CO/N=C1/CN2CCC1C2` (configuration not stated): the half-maximal inhibitory concentration (IC50) in assay [1] stood at 19308 nM; in assay [2], 21 nM.

In the case of `C/C(C#Cc1ccc(Cl)cc1)=C/CO/N=C1/CN2CCC1C2` (configuration not stated), the half-inhibitory concentration (IC50) in assay [1] was found to be 81 nM; in assay [2], 0.45 nM. Besides, the ED50 in assay [3] is 29.1 nM; in assay [4], 2.8 nM.

Regarding `COc1ccc(C#C/C(C)=C\CO/N=C2/CN3CCC2C3)cc1` (configuration not stated), the values for the IC50 in assay [1] and in assay [2] were 1992 nM and 17 nM, respectively. Besides, the ED50 in assay [3] came to 8.6 nM; in assay [4], 10.7 nM.

Take `C/C(C#Cc1ccccc1)=C\CO/N=C1\CN2CCC1C2` (configuration not stated): the half-maximal inhibitory concentration (IC50) is on record as 1587 nM in assay [1] and 12.4 nM in assay [2].

`C/C(C#Cc1ccc(Cl)c(Cl)c1)=C/CO/N=C1/CN2CCC1C2` (configuration not stated): the values for the inhibition in assay [5] and in assay [6] were 51% and 14%, respectively.

Consider `COc1ccc(C#C/C(C)=C\CO/N=C2\CN3CCC2C3)cc1OC` (configuration not stated), for which the IC50 in assay [1] worked out at 1245 nM; in assay [2], 1.38 nM. Further, in assay [3], the ED50 was found to be 55 nM.

In assay [4], `C[N+](C)(C)CCOC(N)=O` came in with an ED50 of 22.8 nM.

As to `C/C(C#Cc1ccc(Cl)cc1)=C/CO/N=C1\CN2CCC1C2` (configuration not stated), in assay [7], the ED50 result is “inactive”.

With `C/C(C#Cc1cccs1)=C\CO/N=C1/CN2CCC1C2` (configuration not stated), the results for the IC50 in assay [1] and in assay [2] were 5593 nM and 80.47 nM, respectively.

In turn, `COc1cccc(C#C/C(C)=C/CO/N=C2/CN3CCC2C3)c1` (configuration not stated) registered an ED50 in assay [3] of 264 nM.

Take `C/C(C#Cc1ccc(C)cc1)=C\CO/N=C1/CN2CCC1C2` (configuration not stated): the figures for the inhibition in assay [5] and in assay [6] were 31% and 29%, respectively.

For `C#C/C(C)=C\CO/N=C1\CN2CCC1C2` (configuration not stated), the ED50 turned out to be 12 nM in assay [3] and 23.7 nM in assay [4].

Turning to `C/C(C#Cc1ccc(C)cc1)=C/CO/N=C1\CN2CCC1C2` (configuration not stated), the IC50 in assay [1] is listed as 64 nM; in assay [2], 0.57 nM. Further, the ED50 in assay [3] stood at 10.5 nM; in assay [4], 10.7 nM.

Take `C/C(C#Cc1ccccc1)=C/CO/N=C1\CN2CCC1C2` (configuration not stated): the IC50 in assay [1] is 44 nM; in assay [2] it was 0.15 nM.

As for `C/C(C#Cc1cccs1)=C\CO/N=C1\CN2CCC1C2` (configuration not stated), the figures for the half-inhibitory concentration (IC50) in assay [1] and in assay [2] were 968 nM and 4.96 nM, respectively. Moreover, the values for the ED50 in assay [3] and in assay [4] were 0.4 nM and 24 nM, respectively.

Turning to `COc1cccc(C#C/C(C)=C\CO/N=C2\CN3CCC2C3)c1` (configuration not stated), the ED50 in assay [3] was 51.1 nM.

With `COc1cccc(C#C/C(C)=C/CO/N=C2\CN3CCC2C3)c1` (configuration not stated), the ED50 in assay [3] was 93.2 nM.

Consider `C/C(C#Cc1ccc(Cl)c(Cl)c1)=C\CO/N=C1\CN2CCC1C2` (configuration not stated), for which the values for the IC50 in assay [1] and in assay [2] were 171 nM and 0.8 nM, respectively. The ED50 in assay [3] is 398 nM; in assay [4], 940 nM.

Regarding `C#C/C(C)=C\CO/N=C1/CN2CCC1C2` (configuration not stated), the IC50 in assay [1] came to 4234 nM; in assay [2] it was 12 nM. In addition, the ED50 in assay [3] worked out at 30 nM; in assay [4] it was 45 nM.

`C/C(C#Cc1ccc(Cl)cc1)=C\CO/N=C1/CN2CCC1C2` (configuration not stated): the inhibition in assay [5] amounted to 52%; in assay [6], 57%.

For the molecule `COc1ccc(C#C/C(C)=C/CO/N=C2\CN3CCC2C3)cc1OC` (configuration not stated), the IC50 in assay [1] is given as 2380 nM; in assay [2], 5.37 nM. Also, the figures for the ED50 in assay [3] and in assay [4] were 74 nM and 1.8 nM, respectively.

`C/C(C#Cc1ccc(C)cc1)=C\CO/N=C1\CN2CCC1C2` (configuration not stated): the half-maximal inhibitory concentration (IC50) worked out at 681 nM in assay [1] and 22.16 nM in assay [2].

As to `C/C(C#Cc1cccs1)=C/CO/N=C1/CN2CCC1C2` (configuration not stated), the half-inhibitory concentration (IC50) in assay [1] came out at 608 nM; in assay [2], 4.1 nM. Moreover, the ED50 was determined as 11.6 nM in assay [3] and 2.5 nM in assay [4].

Turning to `C/C(C#Cc1ccc(C)cc1)=C/CO/N=C1/CN2CCC1C2` (configuration not stated), the half-maximal inhibitory concentration (IC50) in assay [1] worked out at 383 nM; in assay [2], 5.02 nM. The ED50 is 83.3 nM in assay [3] and 4.4 nM in assay [4].

As for `C/C(C#Cc1ccc(Cl)c(Cl)c1)=C/CO/N=C1\CN2CCC1C2` (configuration not stated), the values for the inhibition in assay [5] and in assay [6] were 77% and 46%, respectively.

Take `C/C(C#Cc1ccccc1)=C\CO/N=C1/CN2CCC1C2` (configuration not stated): the inhibition in assay [5] worked out at 18%; in assay [6], 31%.

As to `COc1ccc(C#C/C(C)=C/CO/N=C2/CN3CCC2C3)cc1` (configuration not stated), the inhibition in assay [5] turned out to be 19%; in assay [6], 33%.

For `C/C(C#Cc1ccc(F)cc1)=C\CO/N=C1\CN2CCC1C2` (configuration not stated), the ED50 in assay [3] was 31.5 nM.

In the case of `C/C(C#Cc1cccs1)=C/CO/N=C1\CN2CCC1C2` (configuration not stated), the half-maximal inhibitory concentration (IC50) in assay [1] amounted to 21 nM; in assay [2] it was 0.02 nM. The ED50 in assay [3] stood at 6.2 nM; in assay [4], 2.3 nM.

In assay [3], `C/C(C#Cc1ccc(F)cc1)=C/CO/N=C1/CN2CCC1C2` (configuration not stated) registered an ED50 of 48 nM.

Regarding `C/C(C#Cc1ccc(F)cc1)=C/CO/N=C1\CN2CCC1C2` (configuration not stated), in assay [3], the ED50 amounted to 20.9 nM.

Turning to `C/C(C#Cc1ccc(Cl)c(Cl)c1)=C\CO/N=C1/CN2CCC1C2` (configuration not stated), the values for the inhibition in assay [5] and in assay [6] were 39% and 49%, respectively.

For `C/C(C#Cc1ccc(Cl)cc1)=C\CO/N=C1\CN2CCC1C2` (configuration not stated), the IC50 turned out to be 439 nM in assay [1] and 27.12 nM in assay [2].

As for `C/C(C#Cc1ccccc1)=C/CO/N=C1/CN2CCC1C2` (configuration not stated), the IC50 is 181 nM in assay [1] and 1.07 nM in assay [2]. The ED50 in assay [3] came to 120 nM; in assay [4] it was 4.2 nM.

As for `COc1ccc(C#C/C(C)=C\CO/N=C2\CN3CCC2C3)cc1` (configuration not stated), the results for the IC50 in assay [2] and in assay [8] were 0.1 nM and 60 nM, respectively. Further, the ED50 was 8.5 nM in assay [3] and 8.9 nM in assay [4].

`COc1ccc(C#C/C(C)=C/CO/N=C2\CN3CCC2C3)cc1` (configuration not stated): the half-inhibitory concentration (IC50) in assay [1] is listed as 1413 nM; in assay [2], 12 nM.

Take `C/C(C#Cc1ccc(F)cc1)=C\CO/N=C1/CN2CCC1C2` (configuration not stated): the ED50 in assay [3] came out at 156 nM.
